Source: patent US4292317A, “1,4-Dihydro-quinoline-3-carboxylic acid derivatives, process for their preparation and compositions containing them” (Laboratorie Roger Bellon, priority 1977, dated 1981)
Values after ≈ are worked out from the molar mass of the structure shown. Read-outs that look alike come from different tables or passages of the source.

Legend:
Format in all cases: cell-based
Salm. typhi 0901 = assay: microbe, parasite or virus in culture; settings: Salmonella enterica, 18 h
Method: (§1) After sterilisation at 120° C., the pH was 6.8.
(§2) The minimum inhibitory concentrations (M.I.C.) were determined by dilution of the test compounds in this mixture, the concentration ranging from 0.05 to 100 μg/cm^3 in a geometric progression with a factor of 2.
(§3) The inoculation of the dishes was carried out by means of a multiple inoculator with 10^-3 dilutions of 18 hour old broth cultures.
(§4) The dishes were placed in an oven at 37° C. and the readings were taken afer an incubation time of 18 hours. The M.I.C. was taken as the lowest concentration which inhibited a culture.

B. subtilis = assay: M.I.C. in vitro, nutrient agar dilution; settings: Bacillus subtilis, 18 h, read-out: M.I.C.
Method: as §1, §2, §3, §4

Klebs. pneum. 10.031 = assay: M.I.C. in vitro, nutrient agar dilution; settings: 18 h, read-out: M.I.C.
Method: as §1, §2, §3, §4

Strepto D.M. 19 = assay: M.I.C. in vitro, nutrient agar dilution; settings: 18 h, read-out: M.I.C.
Method: as §1, §2, §3, §4

Staph. 209 P = assay: M.I.C. in vitro, nutrient agar dilution; settings: 18 h, read-out: M.I.C.
Method: as §1, §2, §3, §4

Serratia = assay: M.I.C. in vitro, nutrient agar dilution; settings: 18 h, read-out: M.I.C.
Method: as §1, §2, §3, §4

S. oranienburg 1066 = assay: M.I.C. in vitro, nutrient agar dilution; settings: Salmonella enterica, 18 h, read-out: M.I.C.
Method: as §1, §2, §3, §4

Pr. morganii A.236 = assay: M.I.C. in vitro, nutrient agar dilution; settings: Morganella morganii, 18 h, read-out: M.I.C.
Method: as §1, §2, §3, §4

Sh. sonnei I.P.S. = assay: M.I.C. in vitro, nutrient agar dilution; settings: Shigella sonnei, 18 h, read-out: M.I.C.
Method: as §1, §2, §3, §4

Esch. coli 95 I.S.M. = assay: M.I.C. in vitro, nutrient agar dilution; settings: Escherichia coli, 18 h, read-out: M.I.C.
Method: as §1, §2, §3, §4

Ps. aeruginosa A.22 = assay: M.I.C. in vitro, nutrient agar dilution; settings: Pseudomonas aeruginosa, 18 h, read-out: M.I.C.
Method: as §1, §2, §3, §4

Pr. vulgaris 12-53 = assay: M.I.C. in vitro, nutrient agar dilution; settings: Proteus vulgaris, 1253, 18 h, read-out: M.I.C.
Method: as §1, §2, §3, §4

Pr. mirabilis Nig = assay: M.I.C. in vitro, nutrient agar dilution; settings: Proteus mirabilis, 18 h, read-out: M.I.C.
Method: as §1, §2, §3, §4

Bord. bronchis. 4.617 = assay: M.I.C. in vitro, nutrient agar dilution; settings: 18 h, read-out: M.I.C.
Method: as §1, §2, §3, §4

S. enteritidis Danysz = assay: M.I.C. in vitro, nutrient agar dilution; settings: Salmonella enterica, 18 h, read-out: M.I.C.
Method: as §1, §2, §3, §4

Esch. coli 111 B4 = assay: M.I.C. in vitro, nutrient agar dilution; settings: Escherichia coli, 18 h
Method: as §1, §2, §3, §4

Esch. coli 54.127 O.M.S. = assay: M.I.C. in vitro, nutrient agar dilution; settings: Escherichia coli, 18 h, read-out: M.I.C.
Method: as §1, §2, §3, §4

Staph. 9.144 = assay: M.I.C. in vitro, nutrient agar dilution; settings: 18 h, read-out: M.I.C.
Method: as §1, §2, §3, §4

Ps. aeruginosa 72.345 = assay: M.I.C. in vitro, nutrient agar dilution; settings: Pseudomonas aeruginosa, 18 h, read-out: M.I.C.
Method: as §1, §2, §3, §4

Providentia 0223 = assay: M.I.C. in vitro, nutrient agar dilution; settings: 18 h, read-out: M.I.C.
Method: as §1, §2, §3, §4

Arizona 6.211 = assay: M.I.C. in vitro, nutrient agar dilution; settings: 18 h, read-out: M.I.C.
Method: as §1, §2, §3, §4

Strepto A 561 = assay: M.I.C. in vitro, nutrient agar dilution; settings: 18 h
Method: as §1, §2, §3, §4

[1] = Table 2, Salm. typhi 0901 (Gram negative)
[2] = Table 2, B. subtilis (Gram positive)
[3] = Table 2, Klebs. pneum. 10.031 (Gram negative)
[4] = Table 2, Strepto D.M. 19 (Gram positive)
[5] = Table 2, Staph. 209 P (Gram positive)
[6] = Table 2, Berratia (Gram negative)
[7] = Table 2, S. oranienburg 1066 (Gram negative)
[8] = Table 2, Pr. morganii A.236 (Gram negative)
[9] = Table 2, Sh. sonnei I.P.S. (Gram negative)
[10] = Table 2, Esch. coli 95 I.S.M. (Gram negative)
[11] = Table 2, Ps. aeruginosa A.22 (Gram negative)
[12] = Table 2, Pr. vulgaris 12-53 (Gram negative)
[13] = Table 2, Pr. mirabilis Nig (Gram negative)
[14] = Table 2, Bord. bronchis. 4.617 (Gram negative)
[15] = Table 2, S. enteritidis Danysz (Gram negative)
[16] = Table 2, Esch. coli 111 B4 (Gram negative)
[17] = Table 2, Esch. coli 54.127 O.M.S. (Gram negative)
[18] = Table 2, Staph. 9.144 (Gram positive)
[19] = Table 2, Ps. aeruginosa 72.345 (Gram negative)
[20] = Table 2, Providentia 0223 (Gram negative)
[21] = Table 2, Arizona 6.211 (Gram negative)
[22] = Table 2, Strepto A 561 (Gram positive)

## CCn1cc(C(=O)O)c(=O)c2cc(Cl)c(N3CCOCC3)cc21 [Example 7, 6-Chloro-1-ethyl-7-morpholino-4-oxo-1,4-dihydro-quinoline-3-carboxylic acid]
Salm. typhi 0901; [1]
  MIC: 3.1 µg/mL (≈ 9.2 µM)
B. subtilis; [2]
  MIC: 0.2 µg/mL (≈ 0.594 µM)
Klebs. pneum. 10.031; [3]
  MIC: 0.2 µg/mL (≈ 0.594 µM)
Strepto D.M. 19; [4]
  MIC: 50 µg/mL (≈ 148 µM)
Staph. 209 P; [5]
  MIC: 0.2 µg/mL (≈ 0.594 µM)
Serratia; [6]
  MIC: 0.8 µg/mL (≈ 2.38 µM)
S. oranienburg 1066; [7]
  MIC: > 100 µg/mL
Pr. morganii A.236; [8]
  MIC: 0.8 µg/mL (≈ 2.38 µM)
Sh. sonnei I.P.S.; [9]
  MIC: 0.8 µg/mL (≈ 2.38 µM)
Esch. coli 95 I.S.M.; [10]
  MIC: 1.6 µg/mL (≈ 4.75 µM)
Ps. aeruginosa A.22; [11]
  MIC: 12.5 µg/mL (≈ 37.1 µM)
Pr. vulgaris 12-53; [12]
  MIC: 0.8 µg/mL (≈ 2.38 µM)
Pr. mirabilis Nig; [13]
  MIC: 1.6 µg/mL (≈ 4.75 µM)
Bord. bronchis. 4.617; [14]
  MIC: 12.5 µg/mL (≈ 37.1 µM)
S. enteritidis Danysz; [15]
  MIC: 3.1 µg/mL (≈ 9.2 µM)
Esch. coli 111 B4; [16]
  MIC: 3.1 µg/mL (≈ 9.2 µM)
Esch. coli 54.127 O.M.S.; [17]
  MIC: 3.1 µg/mL (≈ 9.2 µM)
Staph. 9.144; [18]
  MIC: 0.4 µg/mL (≈ 1.19 µM)
Ps. aeruginosa 72.345; [19]
  MIC: 6.2 µg/mL (≈ 18.4 µM)
Providentia 0223; [20]
  MIC: > 100 µg/mL
Arizona 6.211; [21]
  MIC: 1.6 µg/mL (≈ 4.75 µM)
Strepto A 561; [22]
  MIC: 100 µg/mL (≈ 297 µM)

## CCn1cc(C(=O)O)c(=O)c2cc(Cl)c(N3CCNCC3)cc21 [Example 3, 6-Chloro-1-ethyl-4-oxo-7-piperazinyl-1,4-dihydro-quinoline-3-carboxylic acid]
Salm. typhi 0901; [1]
  MIC: 0.2 µg/mL (≈ 0.596 µM)
B. subtilis; [2]
  MIC: 0.2 to 0.4 µg/mL (≈ 0.596 to 1.19 µM)
Klebs. pneum. 10.031; [3]
  MIC: 0.2 µg/mL (≈ 0.596 µM)
Strepto D.M. 19; [4]
  MIC: 1.6 to 3.1 µg/mL (≈ 4.76 to 9.23 µM)
Staph. 209 P; [5]
  MIC: 0.4 to 0.8 µg/mL (≈ 1.19 to 2.38 µM)
Serratia; [6]
  MIC: 3.1 to 12.5 µg/mL (≈ 9.23 to 37.2 µM)
S. oranienburg 1066; [7]
  MIC: 6.2 to 12.5 µg/mL (≈ 18.5 to 37.2 µM)
Pr. morganii A.236; [8]
  MIC: 0.2 µg/mL (≈ 0.596 µM)
Sh. sonnei I.P.S.; [9]
  MIC: 0.2 µg/mL (≈ 0.596 µM)
Esch. coli 95 I.S.M.; [10]
  MIC: 0.2 µg/mL (≈ 0.596 µM)
Ps. aeruginosa A.22; [11]
  MIC: 1.6 to 3.1 µg/mL (≈ 4.76 to 9.23 µM)
Pr. vulgaris 12-53; [12]
  MIC: 0.2 µg/mL (≈ 0.596 µM)
Pr. mirabilis Nig; [13]
  MIC: 0.2 µg/mL (≈ 0.596 µM)
Bord. bronchis. 4.617; [14]
  MIC: 0.2 to 12.5 µg/mL (≈ 0.596 to 37.2 µM)
S. enteritidis Danysz; [15]
  MIC: 0.2 µg/mL (≈ 0.596 µM)
Esch. coli 111 B4; [16]
  MIC: 0.2 µg/mL (≈ 0.596 µM)
Esch. coli 54.127 O.M.S.; [17]
  MIC: 0.2 µg/mL (≈ 0.596 µM)
Staph. 9.144; [18]
  MIC: 0.4 µg/mL (≈ 1.19 µM)
Ps. aeruginosa 72.345; [19]
  MIC: 1.6 to 3.1 µg/mL (≈ 4.76 to 9.23 µM)
Providentia 0223; [20]
  MIC: 1.6 to 3.1 µg/mL (≈ 4.76 to 9.23 µM)
Arizona 6.211; [21]
  MIC: 0.2 µg/mL (≈ 0.596 µM)
Strepto A 561; [22]
  MIC: 6.2 µg/mL (≈ 18.5 µM)

## Cn1cc(C(=O)O)c(=O)c2cc(F)c(N3CCNCC3)cc21 [Example 32, 6-fluoro-1-methyl-4-oxo-7-piperazinyl-1,4-dihydro-quinoline-3-carboxylic acid]
Salm. typhi 0901; Table III, Salm. typhi 0901
  MIC: 0.8 µg/mL (≈ 2.62 µM)
B. subtilis; Table III, B. Subtilis
  MIC: 0.4 µg/mL (≈ 1.31 µM)
Klebs. pneum. 10.031; Table III, Klebs. pneum. 10.031
  MIC: 0.1 µg/mL (≈ 0.328 µM)
Strepto D.M. 19; Table III, Strepto D.M. 19
  MIC: 12.5 µg/mL (≈ 40.9 µM)
Staph. 209 P; Table III, Staph. 209 P
  MIC: 0.8 µg/mL (≈ 2.62 µM)
Serratia; Table III
  MIC: 0.2 µg/mL (≈ 0.655 µM)
S. oranienburg 1066; Table III, S. oranienburg 1066
  MIC: 12.5 µg/mL (≈ 40.9 µM)
Pr. morganii A.236; Table III, Pr. morganii A. 236
  MIC: 0.2 µg/mL (≈ 0.655 µM)
Sh. sonnei I.P.S.; Table III, Sh. sonnei I.P.S.
  MIC: 0.1 µg/mL (≈ 0.328 µM)
Esch. coli 95 I.S.M.; Table III, Esch. coli 95 I.S.M.
  MIC: 0.2 µg/mL (≈ 0.655 µM)
Ps. aeruginosa A.22; Table III, Ps. aeruginosa A.22
  MIC: 0.8 to 3.12 µg/mL (≈ 2.62 to 10.2 µM)
Pr. vulgaris 12-53; Table III, Pr. vulgaris 12-53
  MIC: 0.2 µg/mL (≈ 0.655 µM)
Pr. mirabilis Nig; Table III, Pr. mirabilis Nig
  MIC: 0.2 µg/mL (≈ 0.655 µM)
Bord. bronchis. 4.617; Table III, Bord. bronchis. 4.617
  MIC: 6.25 µg/mL (≈ 20.5 µM)
S. enteritidis Danysz; Table III, S. enteritidis Danysz
  MIC: 0.2 µg/mL (≈ 0.655 µM)
Esch. coli 111 B4; Table III, Esch. coli 111 B4
  MIC: 0.2 µg/mL (≈ 0.655 µM)
Esch. coli 54.127 O.M.S.; Table III, Esch. coli 54.127 O.M.S.
  MIC: 0.2 µg/mL (≈ 0.655 µM)
Staph. 9.144; Table III, Staph. 9.144
  MIC: 0.8 µg/mL (≈ 2.62 µM)
Ps. aeruginosa 72.345; Table III, Pd. aeruginosa 72.345
  MIC: 0.4 to 3.12 µg/mL (≈ 1.31 to 10.2 µM)
Providentia 0223; Table III, Providentia 0223
  MIC: 1.6 µg/mL (≈ 5.24 µM)
Arizona 6.211; Table III, Arizona 6.211
  MIC: 0.2 µg/mL (≈ 0.655 µM)
Strepto A 561; Table III, Strepto A 561
  MIC: 6.2 to 12.5 µg/mL (≈ 20.3 to 40.9 µM)
